Measured values as given in patent US20250145585A1, “HETEROCYCLIC INHIBITORS OF IGF-1R FOR TREATMENT OF DISEASE” (HORIZON THERAPEUTICS IRELAND DAC, priority 2023, published 2025).

Legend:
[1] = target: T1, IGF-1R (Homo sapiens, UniProt P08069); experiment: Example B-1: IGF-1R Assay (PC3 cells stimulated with IGF1, AlphaLISA on cell lysates); type: cell-based; settings: compound two hours, IGF1 200 ng/mL for 30 min, read-out: IC50, Biological Activity against IGF-1R (Table B1)
T1 construct: expressed in transfected cells
T1 sequence (P08069 31-1367): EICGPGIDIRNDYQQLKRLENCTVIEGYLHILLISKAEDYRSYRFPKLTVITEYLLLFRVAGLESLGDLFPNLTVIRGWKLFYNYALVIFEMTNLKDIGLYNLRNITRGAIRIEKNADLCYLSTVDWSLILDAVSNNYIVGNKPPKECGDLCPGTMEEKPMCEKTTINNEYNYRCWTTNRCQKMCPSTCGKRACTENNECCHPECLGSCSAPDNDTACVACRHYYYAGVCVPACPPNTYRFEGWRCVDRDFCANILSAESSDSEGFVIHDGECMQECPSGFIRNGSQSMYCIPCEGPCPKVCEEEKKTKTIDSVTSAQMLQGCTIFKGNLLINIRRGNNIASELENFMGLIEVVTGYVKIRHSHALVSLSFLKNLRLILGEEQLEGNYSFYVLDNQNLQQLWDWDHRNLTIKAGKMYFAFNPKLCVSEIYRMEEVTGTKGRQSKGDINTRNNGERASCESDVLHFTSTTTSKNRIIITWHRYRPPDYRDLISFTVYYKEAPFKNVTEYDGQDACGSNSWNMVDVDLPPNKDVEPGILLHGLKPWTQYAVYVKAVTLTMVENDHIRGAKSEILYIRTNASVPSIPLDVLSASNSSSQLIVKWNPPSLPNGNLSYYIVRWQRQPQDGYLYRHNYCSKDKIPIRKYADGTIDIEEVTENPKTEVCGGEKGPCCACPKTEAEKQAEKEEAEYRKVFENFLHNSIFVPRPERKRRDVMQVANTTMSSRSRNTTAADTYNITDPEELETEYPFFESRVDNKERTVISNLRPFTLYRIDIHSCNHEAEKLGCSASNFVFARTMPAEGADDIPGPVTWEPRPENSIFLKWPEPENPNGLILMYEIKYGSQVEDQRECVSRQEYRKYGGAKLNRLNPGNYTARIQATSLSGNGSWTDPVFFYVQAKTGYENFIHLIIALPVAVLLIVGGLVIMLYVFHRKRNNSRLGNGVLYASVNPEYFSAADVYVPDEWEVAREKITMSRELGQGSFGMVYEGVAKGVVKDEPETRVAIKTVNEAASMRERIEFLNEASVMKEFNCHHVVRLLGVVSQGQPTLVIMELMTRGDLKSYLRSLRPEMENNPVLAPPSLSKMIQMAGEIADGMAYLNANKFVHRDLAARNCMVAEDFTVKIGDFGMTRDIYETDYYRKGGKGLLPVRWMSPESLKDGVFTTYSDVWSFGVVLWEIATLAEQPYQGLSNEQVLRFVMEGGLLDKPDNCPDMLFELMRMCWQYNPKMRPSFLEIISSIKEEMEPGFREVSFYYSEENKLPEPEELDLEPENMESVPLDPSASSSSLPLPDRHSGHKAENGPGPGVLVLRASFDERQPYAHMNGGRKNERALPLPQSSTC
Method in brief: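 IC50 from AlphaLISA read-out of lysed PC3 cells, percent inhibition normalized between vehicle and EC80 controls. Before lysis, cells had 2 h serum-free starvation, 2 h exposure to compound in 3× dilution series, and 30 min IGF1 stimulation at final 200 ng/mL.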

[2] = target: T1, IGF-1R; experiment: Example B-2: IGF-1R Assay (PathHunter cell lines, EC80 agonist challenge, chemiluminescent detection); type: cell-based; settings: PathHunter cells, compound 60 minutes at 37° C., EC80 agonist 3 hours; read-out: IC50, Biological Activity against IGF-1R (Table B2)
Method in brief: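 Read-out is PathHunter chemiluminescence, developed for 1 h at room temperature after a 3 h room-temperature EC80 agonist challenge that followed 60 min compound pre-treatment at 37° C (1% vehicle). IC50 comes from % inhibition normalized to EC80 and vehicle controls.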

| Compound | IC50 [1] [nM] | IC50 [2] [nM] |
| --- | --- | --- |
| CC(C)Nc1cc(CN2C(=O)N(c3ccc4c(c3)C(=O)N(C)C4(C)C)C(=O)C2(C)C)ccn1 [Compound 186, 1-((2-(isopropylamino)pyridin-4-yl)methyl)-5,5-dimethyl-3-(1,1,2-trimethyl-3-oxoisoindolin-5-yl)imidazolidine-2,4-dione] | 2000 to 10000 | 2000 to 10000 |
| CC(C)Nc1cc(CN2C(=O)N(c3ccc4c(c3)N(C)C(=O)C4(C)C)C(=O)C2(C)C)ccn1 [Compound 111, 1-((2-(isopropylamino)pyridin-4-yl)methyl)-5,5-dimethyl-3-(1,3,3-trimethyl-2-oxoindolin-6-yl)imidazolidine-2,4-dione] | 2000 to 10000 | 2000 to 10000 |
| CC(C)Nc1cc(CN2C(=O)N(c3ccc4c(c3)NC(=O)C43CC3)C(=O)C2(C)C)ccn1 [Compound 187, 1-((2-(isopropylamino)pyridin-4-yl)methyl)-5,5-dimethyl-3-(2′-oxospiro[cyclopropane-1,3′-indolin]-6′-yl)imidazolidine-2,4-dione] | 2000 to 10000 | 2000 to 10000 |
| CC(C)Nc1cc(CN2C(=O)N(c3ccc(C4(C(F)(F)F)CC4)cc3)C(=O)C2(C)C)ccn1 [Compound 84, 1-((2-(isopropylamino)pyridin-4-yl)methyl)-5,5-dimethyl-3-(4-(1-(trifluoromethyl)cyclopropyl)phenyl)imidazolidine-2,4-dione] | ≤ 500 | ≤ 500 |
| CC(C)Nc1cc(CN2C(=O)N(c3ccc(C4(C#N)CC(F)(F)C4)cc3)C(=O)C2(C)C)ccn1 [Compound 123, 3,3-difluoro-1-(4-(3-((2-(isopropylamino)pyridin-4-yl)methyl)-4,4-dimethyl-2,5-dioxoimidazolidin-1-yl)phenyl)cyclobutane-1-carbonitrile] | 500 to 2000 | 500 to 2000 |
| COC[C@@H](C)Nc1cc(CN2C(=O)N(c3ccc(S(=O)(=O)C(F)(F)F)cc3)C(=O)C2(C)C)ccn1 [Compound 318, (R)-1-((2-((1-methoxypropan-2-yl)amino)pyridin-4-yl)methyl)-5,5-dimethyl-3-(4-((trifluoromethyl)sulfonyl)phenyl) imidazolidine-2,4-dione] | ≤ 500 | ≤ 500 |
| CC1(C)C(=O)N(c2ccc(C3(C(F)(F)F)CC3)cc2)C(=O)N1Cc1ccnc(NCCS(C)(=O)=O)c1 [Compound 137, 5,5-dimethyl-1-((2-((2-(methylsulfonyl)ethyl)amino)pyridin-4-yl)methyl)-3-(4-(1-(trifluoromethyl)cyclopropyl)phenyl) imidazolidine-2,4-dione] | ≤ 500 | ≤ 500 |
| CC(C)Nc1cc(CN2C(=O)N(c3ccc(C(C)(C)C)cn3)C(=O)C2(C)C)ccn1 [Compound 277, 3-(5-(tert-butyl)pyridin-2-yl)-1-((2-(isopropylamino)pyridin-4-yl)methyl)-5,5-dimethylimidazolidine-2,4-dione] | ≤ 500 | ≤ 500 |
| CC1(C)C(=O)N(c2ccc(C3(C(F)(F)F)CC3)cc2)C(=O)N1Cc1ccnc(NC2CC3(COC3)C2)c1 [Compound 120, 1-((2-((2-oxaspiro[3.3]heptan-6-yl)amino)pyridin-4-yl)methyl)-5,5-dimethyl-3-(4-(1-(trifluoromethyl)cyclopropyl)phenyl) imidazolidine-2,4-dione] | ≤ 500 | ≤ 500 |
| CC(C)Nc1cc(CN2C(=O)N(c3ccc(C(C)(C)C#N)cc3)C(=O)C2(C)C)ccn1 [Compound 125, 2-(4-(3-((2-(isopropylamino)pyridin-4-yl)methyl)-4,4-dimethyl-2,5-dioxoimidazolidin-1-yl)phenyl)-2-methylpropanenitrile] | ≤ 500 | ≤ 500 |
| CN1C(=O)C2(CC2)c2ccc(N3C(=O)N(Cc4ccnc(N)c4)C(C)(C)C3=O)cc21 [Compound 402, 1-((2-aminopyridin-4-yl)methyl)-5,5-dimethyl-3-(1′-methyl-2′-oxospiro[cyclopropane-1,3′-indolin]-6′-yl)imidazolidine-2,4-dione] | 2000 to 10000 | 2000 to 10000 |
| CC1(C)C(=O)N(c2ccc(C3(C(F)(F)F)CC3)cc2)C(=O)N1Cc1ccnc(NC2CC2)c1 [Compound 93, 1-((2-(cyclopropylamino)pyridin-4-yl)methyl)-5,5-dimethyl-3-(4-(1-(trifluoromethyl)cyclopropyl)phenyl)imidazolidine-2,4-dione] | ≤ 500 | ≤ 500 |
| C[C@@H]1COc2c(CN3C(=O)N(c4ccc(C5(C(F)(F)F)CC5)cc4)C(=O)C3(C)C)ccnc2N1 [Compound 25, (R)-5,5-dimethyl-1-((3-methyl-3,4-dihydro-2H-pyrido[3,2-b][1,4]oxazin-8-yl)methyl)-3-(4-(1-(trifluoromethyl)cyclopropyl)phenyl) imidazolidine-2,4-dione] | ≤ 500 | ≤ 500 |
| CC(c1ccnc(NC2CCOCC2)c1)N1C(=O)N(c2ccc(C3(C(F)(F)F)CC3)cc2)C(=O)C1(C)C (stereo not shown) [Compound 134, 5,5-dimethyl-1-(1-(2-((tetrahydro-2H-pyran-4-yl)amino)pyridin-4-yl)ethyl)-3-(4-(1-(trifluoromethyl)cyclopropyl)phenyl) imidazolidine-2,4-dione] | ≤ 500 | 500 to 2000 |
| CC1(C)C(=O)N(c2ccc(S(=O)(=O)C(F)(F)F)cc2)C(=O)N1Cc1ccnc(NCC(F)F)c1 [Compound 317, 1-((2-((2,2-difluoroethyl)amino)pyridin-4-yl)methyl)-5,5-dimethyl-3-(4-((trifluoromethyl)sulfonyl)phenyl) imidazolidine-2,4-dione] | ≤ 500 | ≤ 500 |
| CC1(C)C(=O)N(c2ccc(SC(F)(F)F)cc2)C(=O)N1Cc1ccnc(NC2CCOCC2)c1 [Compound 310, 5,5-dimethyl-1-((2-((tetrahydro-2H-pyran-4-yl)amino)pyridin-4-yl)methyl)-3-(4-((trifluoromethyl)thio)phenyl)imidazolidine-2,4-dione] | ≤ 500 | ≤ 500 |
| CC(C)(C)c1ccc(N2C(=O)N(Cc3ccnc(NC4CCCCC4)c3)C(C)(C)C2=O)cc1 [Compound 264, 3-(4-(tert-butyl)phenyl)-1-((2-(cyclohexylamino)pyridin-4-yl)methyl)-5,5-dimethylimidazolidine-2,4-dione] | ≤ 500 | 500 to 2000 |
| CC1(C)CNc2nccc(CN3C(=O)N(c4ccc(SC(F)(F)F)cc4)C(=O)C3(C)C)c21 [Compound 20, 1-((3,3-dimethyl-2,3-dihydro-1H-pyrrolo[2,3-b]pyridin-4-yl)methyl)-5,5-dimethyl-3-(4-((trifluoromethyl)thio)phenyl)imidazolidine-2,4-dione] | ≤ 500 | ≤ 500 |
| CC1(C)C(=O)N(c2ccc(S(=O)(=O)C(F)(F)F)cc2)C(=O)N1Cc1ccnc(NC2CCOCC2)c1 [Compound 316, 5,5-dimethyl-1-((2-((tetrahydro-2H-pyran-4-yl)amino)pyridin-4-yl)methyl)-3-(4-((trifluoromethyl)sulfonyl)phenyl) imidazolidine-2,4-dione] | ≤ 500 | ≤ 500 |
| CC1(C)C(=O)N(c2ccc(C3(C#N)CCC3)cc2)C(=O)N1Cc1ccnc(NC2CCOCC2)c1 [Compound 129, 1-(4-(4,4-dimethyl-2,5-dioxo-3-((2-((tetrahydro-2H-pyran-4-yl)amino)pyridin-4-yl)methyl)imidazolidin-1-yl)phenyl)cyclobutane-1-carbonitrile] | ≤ 500 | ≤ 500 |
| CC(C)Nc1cc(CN2C(=O)N(c3ccc(C4(C#N)CCCCC4)cc3)C(=O)C2(C)C)ccn1 [Compound 126, 1-(4-(3-((2-(isopropylamino)pyridin-4-yl)methyl)-4,4-dimethyl-2,5-dioxoimidazolidin-1-yl)phenyl)cyclohexane-1-carbonitrile] | 500 to 2000 | 500 to 2000 |
| CC1(C)C(=O)N(c2ccc(C3(C(F)(F)F)CC3)cc2)C(=O)N1Cc1ccnc(N[C@@H]2CCOC2)c1 [Compound 118, (R)-5,5-dimethyl-1-((2-((tetrahydrofuran-3-yl)amino)pyridin-4-yl)methyl)-3-(4-(1-(trifluoromethyl)cyclopropyl)phenyl) imidazolidine-2,4-dione] | ≤ 500 | ≤ 500 |
| CC1(Nc2cc(CN3C(=O)N(c4ccc(C5(C(F)(F)F)CC5)cc4)C(=O)C3(C)C)ccn2)CC1 [Compound 138, 5,5-dimethyl-1-((2-((1-methylcyclopropyl)amino)pyridin-4-yl)methyl)-3-(4-(1-(trifluoromethyl)cyclopropyl)phenyl) imidazolidine-2,4-dione] | ≤ 500 | ≤ 500 |
